In ChEMBL document CHEMBL1147270, “Discorhabdins S, T, and U, new cytotoxic pyrroloiminoquinones from a deep-water Caribbean sponge of the genus Batzella” (J Nat Prod, 2003) one finds IC50 data, which are given here for three compounds.

Bounds are passed on as bounds.

What all share (type): functional, cell-based
In one test the test system is A549. As to the kind of experiment: Cytotoxicity against human A549 cells after 96 hrs by MTT assay. The note with it: A549, 96 h. (In general: Formazan colour is commonly taken as a measure of viable cells.)
The next test has as its system PANC-1. As to the kind of experiment: Cytotoxicity against human PANC1 cells after 96 hrs by MTT assay. Particulars: PANC-1, 96 h.
Another test concerns P388. Kind of test: Cytotoxicity against mouse P388 cells after 48 hrs by MTT assay. Particulars: P388, 48 h.

As a reminder, the IC50 is the concentration that gives 50% inhibition.

On to `CSC1=CC(=O)C(Br)=C[C@]12CCNC1=C2c2nccc3cn(C)c(c23)C1=O` [DISCORHABDIN S], for which the concentration for half-maximal inhibition (IC50) in the test on A549 is greater than 5 µM; with PANC-1, 2.6 µM; with P388, 3.08 µM.
For `CSC1=CC(=O)C(Br)=C[C@]12C=CNC1=C2c2nccc3cn(C)c(c23)C1=O` [DISCORHABDIN T], the IC50 is greater than 5 µM in the test on A549, 0.7 µM in the test on PANC-1 and greater than 5 µM in the test with P388.
As to `CSC1=CC(=O)C(Br)=C[C@]12C=CNC1=C2C2=NCCc3cn(C)c(c32)C1=O` [DISCORHABDIN U], the IC50 was 0.17 µM in the test with A549, 0.069 µM in the test with PANC-1 and 0.17 µM with P388.
